Results on one compound are retold here after ChEMBL document CHEMBL1143638, “Pyrazolopyridinones as functionally selective GABAA ligands” (Bioorg Med Chem Lett, 2005).

Test [1] has as its target T1, GABA-A receptor; alpha-3/beta-3/gamma-2 (Homo sapiens) (UniProt P18507+P28472+P34903). Kind of test: Effective current to modulate GABA-mediated chloride ion flux through GABA-A receptor alpha-3-beta-3-gamma-2 expressed in L(tk-) cells. It counts as functional, cell-based.
The target of test [2] is T2, GABA-A receptor; alpha-3/beta-3/gamma-2 (Homo sapiens, UniProt P18507+P28472+P34903).
T2 sequence (P18507 whole entry): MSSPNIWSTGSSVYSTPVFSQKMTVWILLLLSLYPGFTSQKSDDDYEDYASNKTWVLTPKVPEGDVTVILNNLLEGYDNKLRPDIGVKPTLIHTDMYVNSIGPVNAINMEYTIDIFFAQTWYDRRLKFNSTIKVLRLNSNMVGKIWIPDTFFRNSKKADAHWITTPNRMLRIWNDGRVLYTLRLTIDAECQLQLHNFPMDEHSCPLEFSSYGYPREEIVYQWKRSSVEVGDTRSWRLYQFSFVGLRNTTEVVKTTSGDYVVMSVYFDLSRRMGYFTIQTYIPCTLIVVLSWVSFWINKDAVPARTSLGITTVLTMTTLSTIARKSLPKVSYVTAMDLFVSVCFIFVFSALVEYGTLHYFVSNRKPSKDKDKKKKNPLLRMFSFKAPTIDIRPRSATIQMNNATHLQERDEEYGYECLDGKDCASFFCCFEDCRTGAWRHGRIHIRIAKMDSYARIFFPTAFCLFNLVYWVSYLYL
T2 sequence (P28472 whole entry): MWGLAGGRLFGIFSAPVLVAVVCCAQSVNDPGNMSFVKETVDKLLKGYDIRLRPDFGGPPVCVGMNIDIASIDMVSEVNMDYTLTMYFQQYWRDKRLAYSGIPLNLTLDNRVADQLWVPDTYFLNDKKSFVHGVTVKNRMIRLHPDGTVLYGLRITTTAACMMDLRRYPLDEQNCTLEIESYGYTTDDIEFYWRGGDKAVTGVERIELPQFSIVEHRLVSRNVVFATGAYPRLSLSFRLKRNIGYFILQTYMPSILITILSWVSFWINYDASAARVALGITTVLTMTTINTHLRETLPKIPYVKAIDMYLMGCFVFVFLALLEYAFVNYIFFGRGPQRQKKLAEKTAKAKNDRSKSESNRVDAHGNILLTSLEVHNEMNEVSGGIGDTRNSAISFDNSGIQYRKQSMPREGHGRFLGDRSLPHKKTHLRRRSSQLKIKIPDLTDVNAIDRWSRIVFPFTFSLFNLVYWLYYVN
T2 sequence (P34903 whole entry): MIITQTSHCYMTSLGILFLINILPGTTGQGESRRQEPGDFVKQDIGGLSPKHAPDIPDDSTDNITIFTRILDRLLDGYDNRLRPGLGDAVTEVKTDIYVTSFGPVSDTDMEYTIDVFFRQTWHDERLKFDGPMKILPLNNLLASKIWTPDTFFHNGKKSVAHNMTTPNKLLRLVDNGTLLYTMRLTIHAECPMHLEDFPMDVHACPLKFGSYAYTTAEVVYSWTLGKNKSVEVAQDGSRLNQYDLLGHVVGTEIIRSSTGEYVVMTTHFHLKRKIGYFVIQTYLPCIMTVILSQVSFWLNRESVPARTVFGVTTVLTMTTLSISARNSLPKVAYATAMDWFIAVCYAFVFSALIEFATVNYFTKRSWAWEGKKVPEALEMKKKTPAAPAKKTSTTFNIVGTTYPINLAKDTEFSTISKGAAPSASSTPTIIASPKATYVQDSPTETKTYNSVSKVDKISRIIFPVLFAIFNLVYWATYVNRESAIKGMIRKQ
Kind of test: Inhibition of [3H]-Ro- 15-1788 binding to human GABA-A receptor alpha-3-beta-3-gamma-2 expressed in L(tk-) cells. It counts as cell-based.

Test [3] addresses T3, GABA-A receptor; alpha-1/beta-3/gamma-2 (Homo sapiens) (UniProt P14867+P18507+P28472). Kind of test: Effective concentration to modulate GABA-mediated chloride ion flux through GABA-A receptor alpha-1-beta-3-gamma-2 expressed in L(tk-) cells. It counts as functional, cell-based.
The target in test [4] is T4, GABA-A receptor; alpha-1/beta-3/gamma-2 (Homo sapiens, UniProt P14867+P18507+P28472).
T4 sequence (P14867 whole entry): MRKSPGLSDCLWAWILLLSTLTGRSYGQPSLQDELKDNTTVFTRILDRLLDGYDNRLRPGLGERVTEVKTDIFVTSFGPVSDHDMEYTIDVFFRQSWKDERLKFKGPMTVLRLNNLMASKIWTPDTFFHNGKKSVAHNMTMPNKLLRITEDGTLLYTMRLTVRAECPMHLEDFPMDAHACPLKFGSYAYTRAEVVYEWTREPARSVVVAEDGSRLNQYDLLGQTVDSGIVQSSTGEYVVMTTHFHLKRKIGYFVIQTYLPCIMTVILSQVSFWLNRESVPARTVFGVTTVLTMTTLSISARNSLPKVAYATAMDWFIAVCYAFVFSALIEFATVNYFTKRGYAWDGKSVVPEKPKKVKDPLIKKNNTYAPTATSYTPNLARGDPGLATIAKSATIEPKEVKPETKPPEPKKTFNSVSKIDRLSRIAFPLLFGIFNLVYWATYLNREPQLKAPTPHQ
T4 sequence (P18507 whole entry): T2 sequence (P18507 whole entry)
T4 sequence (P28472 whole entry): T2 sequence (P28472 whole entry)
Kind of test: Inhibition of [3H]-Ro- 15-1788 binding to human GABA-A receptor alpha-1-beta-3-gamma-2 expressed in L(tk-) cells. It counts as cell-based.

Test [5] has as its target T3, GABA-A receptor; alpha-1/beta-3/gamma-2 (Homo sapiens). The experiment in a line: Effective current to modulate GABA-mediated chloride ion flux through GABA-A receptor alpha-1-beta-3-gamma-2 expressed in L(tk-) cells. It counts as functional, cell-based.
Test [6] concerns the target T1, GABA-A receptor; alpha-3/beta-3/gamma-2 (Homo sapiens). The experiment in a line: Effective concentration to modulate GABA-mediated chloride ion flux through GABA-A receptor alpha-3-beta-3-gamma-2 expressed in L(tk-) cells. It counts as functional, cell-based.

The term Ki denotes a measure of affinity in units of concentration, obtained from inhibition or displacement. High values mean weaker binding, low ones tighter binding. As to `O=c1c2c[nH]c3c(c-2nn1-c1ccc(Cl)cc1)CCCC3`, the Efficacy in test [1] stood at 0.45; in test [3], 0.14; in test [5], 0.21; in test [6], 0.38. Also, the Ki in test [2] came to 1.5 nM; in test [4] it was 0.29 nM.
